Measured values: patent US20080004290A1, “Anti-Cancer Agents” (THE UNIVERSITY OF QUEENSLAND, priority 2003, published 2008)
Like-named read-outs stand apart in the source and are kept apart here. Blank lines part the entries; values can stand above or below the molecule they belong to.

Experiments:
[1] = tested on: NFF, neonatal foreskin fibroblasts; experiment: Cell survival assay (clonogenic survival, SRB), normal cells; assay type: cell-based, human
Summary of the method: (§1)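 Cells (5×10^3/well, RPMI 1640 with 10% FCS) treated 24 h with compound at 0.01-10 μg/mL, then washed and grown 72 h drug-free at 37 °C, 5% CO2. Survival read by SRB staining after methylated-spirit fixation, absorbance 564 nm.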

[2] = tested on: MM96L melanoma cells; experiment: Cell survival assay (clonogenic survival, SRB); assay type: cell-based, human
Summary of the method: as §1

[3] = tested on: CI-80-13S ovarian cancer cells; experiment: Cell survival assay (SRB); assay type: cell-based, human; settings: Table 10; standard deviations in parentheses; read-out: Cell line IC50 (μM) C18013S
Summary of the method: (§2)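 Following overnight adherence, cells are treated with test compounds for 24 hours, then washed free of drug and cultured 72 hours longer. Survival is quantified by sulforhodamine B protein staining read at 564 nm.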

[4] = tested on: DO4 melanoma cells; experiment: Cell survival assay (SRB); assay type: cell-based, human
Summary of the method: as §2

[5] = tested on: DU145 prostate cancer cells; experiment: Cell survival assay (SRB); assay type: cell-based, human; settings: Table 10; standard deviations in parentheses; read-out: Cell line IC50 (μM) DU145
Summary of the method: as §2

[6] = tested on: JAM ovarian cancer cells; experiment: Cell survival assay (SRB); assay type: cell-based, human; settings: Table 10; standard deviations in parentheses; read-out: Cell line IC50 (μM) JAM
Summary of the method: as §2

[7] = tested on: MCF-7 breast cancer cells; experiment: Cell survival assay (SRB); assay type: cell-based, human; settings: Table 10; standard deviations in parentheses; read-out: Cell line IC50 (μM) MCF7
Summary of the method: as §2

[8] = tested on: SkMel28 melanoma cells; experiment: Cell survival assay (SRB); assay type: cell-based, human
Summary of the method: as §2

[9] = tested on: p21^WAF1/Cip1 (CDKN1A); experiment: Induction of p21 expression (semi-quantitative RT-PCR) in MM96L cells; assay type: cell-based, human; settings: MM96L melanoma cells, 10 μg/ml, after 16 hrs treatment
From the text: Induction of p21 Expression. It has been postulated that histone acetylation is associated with activation of gene transcription. […] Possibly the best characterised gene to be induced following exposure to different HDAC inhibitors is that of the cyclin-dependent kinase inhibitor p21^WAF1/Cip1, which blocks cyclin-dependent kinase activity thereby causing cell-cycle arrest in G1. HDAC inhibitors are thought to act directly on the CDKN1A promoter rather than an upstream target. The HDAC inhibitor SAHA induces accumulation of acetylated histones in the chromatin associated with the CDKN1A gene, and this correlates with the observed increase in transcription. […]
Cell Treatment and Total RNA Isolation. […] RNA was analysed for sufficient quality by formamide agarose gel electrophoresis, and quantified by spectrophotometry.
p21 Expression. The semi-quantitative analysis of mRNA expression of p21^WAF1/Cip1 was carried out by RT-PCR. […] Products were analysed by agarose gel electrophoresis, and visualised on a UV light box. Product intensity was determined to increase linearly with number of cycles and amount of mRNA used, by densitometric analysis using ImageQuaNT 4.2 software (Molecular Dynamics, Sunnyvale, Calif.). Quantitation of p21^WAF1/Cip1 induction was also performed by densitometric analysis using ImageQuaNT 4.2 software following normalisation to GAPDH product intensity.

[10] = Oral bioavailability, plasma concentration after oral and intravenous administration; assay type: in vivo, Wistar rats; settings: 5 mg/kg in 4:1 olive oil:DMSO, three rats starved prior to dosing
Protocol: FIG. 7. Oral Bioavailability. Time dependent plasma concentration of compound of example 24 after oral (top) and intravenous (bottom) administration at 5 mg/kg to each of three Wistar rats.
Compounds of the invention were examined to see whether this new series had the expected favorable properties for oral delivery. […] Compound 24 (Log D7.0 2.7) was administered intravenously and orally to rats. […] Neither vehicle nor fasting had any significant effects on these parameters.

[11] = tested on: A2058 cells; experiment: Cell survival assay (SRB); assay type: cell-based, human
Protocol: (§3) Cell Lines and Culture Medium. All cell lines used in this study have been described previously (Parsons et al., 1986; Todaro et al., 1980; Glenn et al., 2004). All cell lines were cultured in 10% heat-inactivated foetal calf serum (CSL, Australia) in RPMI 1640 medium supplemented with 100 U/mL penicillin, 100 μg/mL streptomycin, and 3 mM HEPES at 5% CO2, 99% humidity at 37° C. Primary human fibroblasts were obtained from neonatal foreskins and cultured in the above medium. Routine mycoplasma tests were performed using Hoechst stain^i and were always negative.
(§4) Cell Survival Assay. Cells were plated into 96-well microtitre plates at 5×10^3 cells/well, and allowed to adhere overnight. Test compounds were added to culture medium at the indicated concentrations, and plates incubated in the above conditions for 24 hours. Following this incubation period, compounds and media were removed, and replaced with fresh culture medium. Cells were then grown for a further 72 hours before assay using sulforhodamine B (SRB; Sigma, St. Louis, Mo.) as previously described. Briefly, the culture medium was removed from the 96-well microtitre plates and the plates washed twice with phosphate buffered saline (PBS), before the cells were fixed with methylated spirits for 15 minutes. The plates were then rinsed with tap water and the fixed cells stained with 50 μL/well of SRB solution (0.4% sulforhodamine B (w/v) in 1% (v/v) acetic acid) over a period of 1 hour. The SRB solution was then removed from the wells and the plates rapidly washed two times with 1% (v/v) acetic acid. Protein bound dye was then solubilised with the addition of 100 μL of 10 mM unbuffered Tris, and incubated for 15 min at 25° C. Plates were then read at 564 nm on a VERSA max tunable microplate reader (Molecular Devices, Sunnyvale, Calif.).

[12] = tested on: AF-6 cells; experiment: Cell survival assay (SRB); assay type: cell-based, human
Protocol: as §3, §4

[13] = tested on: AO7 RM cells; experiment: Cell survival assay (SRB); assay type: cell-based, human
Protocol: as §3, §4

[14] = tested on: D11 melanoma cells; experiment: Cell survival assay (SRB); assay type: cell-based, human
Protocol: as §3, §4

[15] = tested on: D14 melanoma cells; experiment: Cell survival assay (SRB); assay type: cell-based, human
Protocol: as §3, §4

[16] = tested on: D17 melanoma cells; experiment: Cell survival assay (SRB); assay type: cell-based, human
Protocol: as §3, §4

[17] = tested on: HeLa cells; experiment: Cell survival assay (SRB); assay type: cell-based, human
Protocol: as §3, §4

[18] = tested on: LSP M2 cells; experiment: Cell survival assay (SRB); assay type: cell-based, human
Protocol: as §3, §4

[19] = tested on: MM229 melanoma cells; experiment: Cell survival assay (SRB); assay type: cell-based, human
Protocol: as §3, §4

[20] = tested on: MM329 melanoma cells; experiment: Cell survival assay (SRB); assay type: cell-based, human
Protocol: as §3, §4

[21] = tested on: MM470 melanoma cells; experiment: Cell survival assay (SRB); assay type: cell-based, human
Protocol: as §3, §4

[22] = tested on: MM604 melanoma cells; experiment: Cell survival assay (SRB); assay type: cell-based, human
Protocol: as §3, §4

[23] = tested on: Mel FH melanoma cells; experiment: Cell survival assay (SRB); assay type: cell-based, human
Protocol: as §3, §4

[24] = tested on: Mel RM melanoma cells; experiment: Cell survival assay (SRB); assay type: cell-based, human
Protocol: as §3, §4

[25] = Table 11, IC50 (NFF)/IC50(cancer cell line)
[26] = Homo sapiens, Table 11, antiproliferative potency

Tmax [10]: ~15 min
time for which high serum levels of drug were maintained [10]: > 4 h
Cmax ([10]; serum, preliminary study): ~6000 ng/mL
Structure (SMILES): O=C(CCCSC[C@H](NC(=O)c1ccc(Br)cc1)C(=O)NCc1ccccc1)NO [Example 24]
IC50 ([1]; Table 10, standard deviations in parentheses, read-out: Cell line IC50 (μM) NFF): 0.83 µM
IC50 ([2]; Table 10, standard deviations in parentheses, read-out: Cell line IC50 (μM) MM96L): 0.2 µM
IC50 [3]: 1.5 µM
IC50 ([4]; Table 10, standard deviations in parentheses, read-out: Cell line IC50 (μM) DO4): 3.5 µM
IC50 [5]: 3.8 µM
IC50 [6]: 2 µM
IC50 [7]: 1.16 µM
IC50 ([8]; Table 10, standard deviations in parentheses, read-out: Cell line IC50 (μM) SkMel): 5.7 µM
Induction of mRNA for p21^WAF1/Cip1 [9]: Induction of mRNA for p21^WAF1/Cip1 was seen

Structure (SMILES): CN(C)c1ccc(C(=O)N[C@@H](CCCCCC(=O)NO)C(=O)NCc2ccccc2)cc1 (racemic) [Example 124]
IC50 ([1]; Homo sapiens, Fibroblast, NFF normal fibroblasts, 24 h with compound, further 72 h growth, SRB, read-out: IC50 (uM) NFF): 0.87 ± 0.07 µM
IC50 ([1]; Homo sapiens, Fibroblast, Table 11, antiproliferative potency, read-out: IC50 (μM) NFF): 0.87 ± 0.07 µM
IC50 ([2]; Homo sapiens, MM96L, MM96L melanoma, 24 h with compound, further 72 h growth, SRB, read-out: IC50 (uM) MM96L): 0.13 ± 0.02 µM
IC50 ([2]; Homo sapiens, MM96L, Table 11, antiproliferative potency, read-out: IC50 (μM) MM96L): 0.13 ± 0.02 µM
IC50 ([2]; Homo sapiens, MM96L, most preferred compounds, exemplary examples, read-out: potency of IC50 against the MM96 melanoma cells): ≤ 0.5 µM
SI (Selectivity Index = IC50 (NFF)/IC50 (MM96L)) ([2]; NFF vs MM96L): 6.7
Selectivity MM96L [2, 25]: 6.7
IC50 ([4]; Homo sapiens, DO4, Table 11, antiproliferative potency, read-out: IC50 (μM) DO4): 0.12 ± 0.03 µM
Selectivity DO4 [4, 25]: 7
IC50 ([8]; Homo sapiens, SK-MEL-28, Table 11, antiproliferative potency, read-out: IC50 (μM) SK Mel 28): 0.06 ± 0.04 µM
Selectivity SK Mel 28 [8, 25]: 15
IC50 ([11]; Homo sapiens, A2058, Table 11, antiproliferative potency): 0.1 ± 0.02 µM
Selectivity A2058 [11, 25]: 9
IC50 [12, 26]: 0.3 ± 0.03 µM
Selectivity AF-6 [12, 25]: 3
IC50 [13, 26]: 0.18 ± 0.07 µM
Selectivity AO7 RM [13, 25]: 5
IC50 [14, 26]: 0.3 ± 0.2 µM
Selectivity D11 [14, 25]: 3
IC50 [15, 26]: 0.26 ± 0.08 µM
Selectivity D14 [15, 25]: 3
IC50 ([16]; Homo sapiens, D17, Table 11, antiproliferative potency): 0.06 ± 0.02 µM
Selectivity D17 [16, 25]: 15
IC50 [17, 26]: 0.09 ± 0.01 µM
Selectivity HeLa [17, 25]: 10
IC50 [18, 26]: 0.45 ± 0.05 µM
Selectivity LSP M2 [18, 25]: 2
IC50 [19, 26]: 0.6 ± 0.08 µM
Selectivity MM229 [19, 25]: 1.5
IC50 [20, 26]: 0.06 ± 0.04 µM
Selectivity MM329 [20, 25]: 15
IC50 [21, 26]: 0.09 ± 0.07 µM
Selectivity MM470 [21, 25]: 10
IC50 [22, 26]: 0.01 ± 0.01 µM
Selectivity MM604 [22, 25]: 87
IC50 [23, 26]: 0.08 ± 0.04 µM
Selectivity Mel FH [23, 25]: 11
IC50 [24, 26]: 0.95 ± 0.07 µM
Selectivity Mel RM [24, 25]: 0.9
